pIC50: −log10 of the molar value.
System: 855422-203-R-J1-PDC complex spheroid viability
Assay: Anticancer human tumor 855422-203-R-J1-PDC patient-derived bladder carcinoma cell line growth inhibition [POLQ]
Conditions: for pIC50: curve of first compound; for viability, T/C: stronger effect = lower value
In short: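 Complex spheroid viability model combining PDC tumour cells with endothelial (HUVEC) and MSC stromal cells. Novobiocin, ART-558 or RP6685 were tested singly and in combination with standard and investigational anticancer drugs. Each was titrated in half-log steps from near clinical Cmax, or from 10 microM where Cmax was unknown.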
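Note: spheroids exposed to compounds for seven days before readout.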

Compound: CC[C@@]1(O)C(=O)OCc2c1cc1n(c2=O)Cc2cc3c(CN(C)C)c(O)ccc3nc2-1 + Nc1ccc(C#CCN(C(=O)Cc2ncc(C(F)(F)F)cc2C(F)(F)F)c2ccc(F)cc2)nn1
- pIC50 (second compound 0.0316 µM): 7.24
- pIC50 (second compound 0.1 µM): 7.18
- pIC50 (second compound 0.316 µM): 7.21
- pIC50 (second compound 1 µM): 7.22
- pIC50 (second compound 3.16 µM): 7.18
- pIC50 (second compound 10 µM): 7.19
- viability, T/C (second compound 0.0316 µM, first compound 0.000316 µM): 89.5%
- viability, T/C (second compound 0.0316 µM, first compound 0.001 µM): 111%
- viability, T/C (second compound 0.0316 µM, first compound 0.00316 µM): 101%
- viability, T/C (second compound 0.0316 µM, first compound 0.01 µM): 89.6%
- viability, T/C (second compound 0.0316 µM, first compound 0.0316 µM): 86.9%
- viability, T/C (second compound 0.0316 µM, first compound 0.1 µM): 16.9%
- viability, T/C (second compound 0.1 µM, first compound 0.000316 µM): 83.8%
- viability, T/C (second compound 0.1 µM, first compound 0.001 µM): 129%
- viability, T/C (second compound 0.1 µM, first compound 0.00316 µM): 102%
- viability, T/C (second compound 0.1 µM, first compound 0.01 µM): 98.4%
- viability, T/C (second compound 0.1 µM, first compound 0.0316 µM): 99.3%
- viability, T/C (second compound 0.1 µM, first compound 0.1 µM): 23.3%
- viability, T/C (second compound 0.316 µM, first compound 0.000316 µM): 91.8%
- viability, T/C (second compound 0.316 µM, first compound 0.001 µM): 99%
- viability, T/C (second compound 0.316 µM, first compound 0.00316 µM): 91.8%
- viability, T/C (second compound 0.316 µM, first compound 0.01 µM): 101%
- viability, T/C (second compound 0.316 µM, first compound 0.0316 µM): 97.1%
- viability, T/C (second compound 0.316 µM, first compound 0.1 µM): 17.1%
- viability, T/C (second compound 1 µM, first compound 0.000316 µM): 94.6%
- viability, T/C (second compound 1 µM, first compound 0.001 µM): 88.5%
- viability, T/C (second compound 1 µM, first compound 0.00316 µM): 109%
- viability, T/C (second compound 1 µM, first compound 0.01 µM): 114%
- viability, T/C (second compound 1 µM, first compound 0.0316 µM): 83%
- viability, T/C (second compound 1 µM, first compound 0.1 µM): 23.1%
- viability, T/C (second compound 3.16 µM, first compound 0.000316 µM): 92.8%
- viability, T/C (second compound 3.16 µM, first compound 0.001 µM): 106%
- viability, T/C (second compound 3.16 µM, first compound 0.00316 µM): 99.4%
- viability, T/C (second compound 3.16 µM, first compound 0.01 µM): 117%
- viability, T/C (second compound 3.16 µM, first compound 0.0316 µM): 102%
- viability, T/C (second compound 3.16 µM, first compound 0.1 µM): 21.3%
- viability, T/C (second compound 10 µM, first compound 0.000316 µM): 98.7%
- viability, T/C (second compound 10 µM, first compound 0.001 µM): 93.7%
- viability, T/C (second compound 10 µM, first compound 0.00316 µM): 97%
- viability, T/C (second compound 10 µM, first compound 0.01 µM): 100%
- viability, T/C (second compound 10 µM, first compound 0.0316 µM): 95.3%
- viability, T/C (second compound 10 µM, first compound 0.1 µM): 21.2%
